Source: ChEMBL document CHEMBL1649219, “Imidocarb dipropionate clears persistent Babesia caballi infection with elimination of transmission potential” (Antimicrob Agents Chemother, 2009)
The source made the active and inactive calls.

Key:
Assay type in all cases: functional, organism-based
Parameters in all cases: dose 4 mg/kg
[1] = tested on: Babesia caballi; assay: Antiparasitic activity against Babesia caballi receiving blood from 4 times 4 mg/kg, im compound treated donor horse infected with Babesia caballi assessed as reduction in parasite specific antibodies measured after 100 days post-parasite transmission by C-ELISA
[2] = tested on: Babesia caballi; assay: Antiparasitic activity against Babesia caballi infected in horse assessed as reduction in parasite level at 4 mg/kg, im dosed 4 times at 72 hrs intervals administered 70 days postinfection and measured 5 days post last dose by nested PCR
[3] = tested on: Babesia caballi; assay: Antiparasitic activity against Babesia caballi receiving ticks from 4 times 4 mg/kg, im compound treated donor horse infected with Babesia caballi assessed as reduction in parasite specific antibodies measured after 100 days post-parasite transmission by C-ELISA
[4] = tested on: Babesia caballi; assay: Antiparasitic activity against Babesia caballi receiving ticks from 4 times 4 mg/kg, im compound treated donor horse infected with Babesia caballi assessed as reduction in parasite level measured after 100 days post-parasite transmission by nested PCR
[5] = tested on: Babesia caballi; assay: Antiparasitic activity against Babesia caballi infected in horse assessed as reduction in parasite specific antibodies at 4 mg/kg, im dosed 4 times at 72 hrs intervals administered 70 days postinfection measured 201 days post dose by C-ELISA
[6] = tested on: Babesia caballi; assay: Antiparasitic activity against Babesia caballi receiving blood from 4 times 4 mg/kg, im compound treated donor horse infected with Babesia caballi assessed as reduction in parasite level measured after 100 days post-parasite transmission by nested PCR
[7] = tested on: Babesia caballi; assay: Antiparasitic activity against Babesia caballi infected in horse assessed as reduction in parasite specific antibodies at 4 mg/kg, im dosed 4 times at 72 hrs intervals administered 70 days postinfection measured 222 days post dose by immunoblot
[8] = tested on: Babesia caballi; assay: Antiparasitic activity against Babesia caballi infected in horse assessed as reduction in parasite specific antibodies at 4 mg/kg, im dosed 4 times at 72 hrs intervals administered 70 days postinfection measured 56 days post dose by complement fixation assay
[9] = tested on: Babesia caballi; assay: Antiparasitic activity against Babesia caballi infected in horse assessed as reduction in parasite level at 4 mg/kg, im dosed 4 times at 72 hrs intervals administered 70 days postinfection and measured 5 days post last dose by quantitative PCR

Measured: Activity

O=C(Nc1cccc(C2=NCCN2)c1)Nc1cccc(C2=NCCN2)c1
active: all assays above
